Test results from ChEMBL document CHEMBL5291721, “A preclinical secondary pharmacology resource illuminates target-adverse drug reaction associations of marketed drugs” (Nat Commun, 2023).
*1 amine or outer side, *2 acyl side, *3 side chain or, on linkers, in order; H or OH if unused. Where a SMILES comes first, the peptide text is derived from it. Bridges are numbered along the chain shown (N, C = ends). [ ]: non-standard residue; d: D form. The star is where a group is joined. hTyr(3S-OH,4S-OH,3'-OSO3H) = N[C@H](C(=O)O)[C@H](O)[C@@H](O)c1ccc(O)c(OS(=O)(=O)O)c1; Orn(4R-OH,5R-OH) = O=C([C@H](C[C@@H](O)[C@@H](O)N[*:3])N[*:1])[*:2]; Pro(3S-OH,4S-Me) = C[C@H]1CN[C@H](C(=O)O)[C@H]1O; X1 = CCCCCOc1ccc(-c2cc(-c3ccc(C(=O)*)cc3)no2)cc1; Gln(3R-OH) = NC(=O)C[C@@H](O)[C@H](N)C(=O)O; Hyp = O=C(O)[C@@H]1C[C@@H](O)CN1

Key:
[1] = molecular target: T1, 5-hydroxytryptamine receptor 3A (Homo sapiens, UniProt P46098); assay type: functional
T1 sequence (P46098 whole entry): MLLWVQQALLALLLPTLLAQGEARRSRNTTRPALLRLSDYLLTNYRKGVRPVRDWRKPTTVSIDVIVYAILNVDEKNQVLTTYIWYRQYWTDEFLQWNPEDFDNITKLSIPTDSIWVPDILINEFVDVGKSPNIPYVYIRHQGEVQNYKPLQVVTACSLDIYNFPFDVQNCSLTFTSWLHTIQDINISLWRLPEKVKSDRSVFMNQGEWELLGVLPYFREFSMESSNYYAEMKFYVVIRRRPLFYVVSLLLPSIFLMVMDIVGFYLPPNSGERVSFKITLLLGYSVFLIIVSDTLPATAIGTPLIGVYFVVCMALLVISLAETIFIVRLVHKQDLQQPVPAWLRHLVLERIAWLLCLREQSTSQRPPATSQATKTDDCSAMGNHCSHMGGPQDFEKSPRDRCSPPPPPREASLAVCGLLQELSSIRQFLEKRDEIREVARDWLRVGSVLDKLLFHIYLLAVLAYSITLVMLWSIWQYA

[2] = molecular target: T2, Alpha-2A adrenergic receptor (Homo sapiens, UniProt P08913); assay type: functional, cell-based
T2 sequence (P08913 whole entry): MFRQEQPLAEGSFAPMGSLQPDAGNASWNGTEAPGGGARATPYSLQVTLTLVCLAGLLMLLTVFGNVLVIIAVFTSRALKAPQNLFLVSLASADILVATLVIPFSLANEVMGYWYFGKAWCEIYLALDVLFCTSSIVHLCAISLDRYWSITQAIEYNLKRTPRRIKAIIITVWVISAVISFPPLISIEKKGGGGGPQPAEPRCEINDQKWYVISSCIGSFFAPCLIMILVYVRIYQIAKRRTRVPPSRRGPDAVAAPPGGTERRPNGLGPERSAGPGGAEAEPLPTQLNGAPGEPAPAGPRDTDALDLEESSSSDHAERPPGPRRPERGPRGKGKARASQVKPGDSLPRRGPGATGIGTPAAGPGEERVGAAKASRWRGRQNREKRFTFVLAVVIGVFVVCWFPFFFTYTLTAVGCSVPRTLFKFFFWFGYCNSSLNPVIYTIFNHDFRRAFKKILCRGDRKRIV

[3] = molecular target: Sodium-dependent serotonin transporter (Homo sapiens, UniProt P31645)
Sodium-dependent serotonin transporter, sequence (P31645 whole entry): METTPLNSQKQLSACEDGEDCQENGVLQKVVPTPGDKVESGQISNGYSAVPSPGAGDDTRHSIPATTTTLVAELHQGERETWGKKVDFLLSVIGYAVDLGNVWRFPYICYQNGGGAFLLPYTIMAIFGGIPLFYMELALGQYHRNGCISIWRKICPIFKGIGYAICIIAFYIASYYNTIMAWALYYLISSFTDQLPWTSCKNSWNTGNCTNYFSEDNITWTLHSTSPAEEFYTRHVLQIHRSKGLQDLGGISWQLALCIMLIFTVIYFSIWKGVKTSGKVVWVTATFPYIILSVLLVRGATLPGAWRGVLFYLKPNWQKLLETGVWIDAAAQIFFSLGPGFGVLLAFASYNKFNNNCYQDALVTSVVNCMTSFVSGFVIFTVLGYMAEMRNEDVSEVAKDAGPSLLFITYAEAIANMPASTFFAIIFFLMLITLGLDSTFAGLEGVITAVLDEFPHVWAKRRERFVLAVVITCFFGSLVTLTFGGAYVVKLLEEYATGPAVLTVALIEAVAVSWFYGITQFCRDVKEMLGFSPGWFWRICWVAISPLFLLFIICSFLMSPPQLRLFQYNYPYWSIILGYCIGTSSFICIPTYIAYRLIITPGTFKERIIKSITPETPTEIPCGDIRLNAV

Cannabinoid receptor 1 = Cannabinoid receptor 1 (Homo sapiens, UniProt P21554); assay type: functional, cell-based
Cannabinoid receptor 1, sequence (P21554 whole entry): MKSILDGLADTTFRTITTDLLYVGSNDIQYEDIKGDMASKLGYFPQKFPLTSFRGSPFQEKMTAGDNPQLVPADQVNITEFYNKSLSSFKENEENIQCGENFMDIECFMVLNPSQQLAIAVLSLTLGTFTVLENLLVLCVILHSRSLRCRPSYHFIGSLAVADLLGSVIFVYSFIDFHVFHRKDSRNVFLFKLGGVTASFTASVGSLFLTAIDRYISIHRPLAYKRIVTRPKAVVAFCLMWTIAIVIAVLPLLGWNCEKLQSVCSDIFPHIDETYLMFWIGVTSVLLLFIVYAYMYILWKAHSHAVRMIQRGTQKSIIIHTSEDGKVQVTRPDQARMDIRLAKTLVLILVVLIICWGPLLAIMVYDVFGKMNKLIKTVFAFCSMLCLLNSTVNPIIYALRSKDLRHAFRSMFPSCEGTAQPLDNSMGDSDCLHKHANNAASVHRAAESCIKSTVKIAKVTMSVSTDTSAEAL

[4] = molecular target: T2, Alpha-2A adrenergic receptor; assay type: functional, cell-based; remark: listed apart in the source
[5] = molecular target: 5-hydroxytryptamine receptor 2B (Homo sapiens, UniProt P41595); assay type: functional, cell-based
5-hydroxytryptamine receptor 2B, sequence (P41595 whole entry): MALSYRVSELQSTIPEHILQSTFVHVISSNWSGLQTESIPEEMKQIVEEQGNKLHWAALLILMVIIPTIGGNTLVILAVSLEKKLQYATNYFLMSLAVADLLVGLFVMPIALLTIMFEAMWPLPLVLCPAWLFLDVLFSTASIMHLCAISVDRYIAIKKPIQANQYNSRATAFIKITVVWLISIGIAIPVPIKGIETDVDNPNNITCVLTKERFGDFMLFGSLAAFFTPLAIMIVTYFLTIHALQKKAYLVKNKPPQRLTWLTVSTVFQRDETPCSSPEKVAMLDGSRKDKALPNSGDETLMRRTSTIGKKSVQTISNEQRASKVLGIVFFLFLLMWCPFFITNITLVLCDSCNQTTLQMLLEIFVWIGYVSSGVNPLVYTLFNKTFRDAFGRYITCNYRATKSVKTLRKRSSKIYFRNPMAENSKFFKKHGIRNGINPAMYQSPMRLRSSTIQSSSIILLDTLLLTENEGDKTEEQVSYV

[6] = molecular target: T3, Cholecystokinin receptor type A (Homo sapiens, UniProt P32238)
T3 sequence (P32238 whole entry): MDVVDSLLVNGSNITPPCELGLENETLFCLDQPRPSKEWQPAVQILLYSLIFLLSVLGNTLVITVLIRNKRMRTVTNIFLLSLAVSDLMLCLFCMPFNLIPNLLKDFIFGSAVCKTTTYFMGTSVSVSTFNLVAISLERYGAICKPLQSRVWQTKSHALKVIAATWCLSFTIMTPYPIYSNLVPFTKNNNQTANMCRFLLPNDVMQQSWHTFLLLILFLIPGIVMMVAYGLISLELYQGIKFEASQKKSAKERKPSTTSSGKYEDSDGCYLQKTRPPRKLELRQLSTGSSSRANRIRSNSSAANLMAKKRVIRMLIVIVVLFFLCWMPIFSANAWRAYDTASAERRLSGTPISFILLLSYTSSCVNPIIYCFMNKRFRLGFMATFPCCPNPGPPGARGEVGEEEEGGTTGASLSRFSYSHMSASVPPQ

[7] = molecular target: T4, Neuropeptide Y receptor type 1 (Homo sapiens, UniProt P25929)
T4 sequence (P25929 whole entry): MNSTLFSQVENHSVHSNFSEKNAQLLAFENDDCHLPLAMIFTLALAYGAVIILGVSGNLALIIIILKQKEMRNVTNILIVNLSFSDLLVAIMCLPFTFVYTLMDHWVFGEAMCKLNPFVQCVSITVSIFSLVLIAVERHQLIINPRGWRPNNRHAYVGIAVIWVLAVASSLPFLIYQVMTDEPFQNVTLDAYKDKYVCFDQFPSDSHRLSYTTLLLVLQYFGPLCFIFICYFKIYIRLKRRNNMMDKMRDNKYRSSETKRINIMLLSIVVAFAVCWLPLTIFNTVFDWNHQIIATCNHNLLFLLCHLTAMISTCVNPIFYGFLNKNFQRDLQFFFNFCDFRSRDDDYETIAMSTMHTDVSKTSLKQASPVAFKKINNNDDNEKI

Motilin receptor = Motilin receptor (Homo sapiens, UniProt O43193)
Motilin receptor, sequence (O43193 whole entry): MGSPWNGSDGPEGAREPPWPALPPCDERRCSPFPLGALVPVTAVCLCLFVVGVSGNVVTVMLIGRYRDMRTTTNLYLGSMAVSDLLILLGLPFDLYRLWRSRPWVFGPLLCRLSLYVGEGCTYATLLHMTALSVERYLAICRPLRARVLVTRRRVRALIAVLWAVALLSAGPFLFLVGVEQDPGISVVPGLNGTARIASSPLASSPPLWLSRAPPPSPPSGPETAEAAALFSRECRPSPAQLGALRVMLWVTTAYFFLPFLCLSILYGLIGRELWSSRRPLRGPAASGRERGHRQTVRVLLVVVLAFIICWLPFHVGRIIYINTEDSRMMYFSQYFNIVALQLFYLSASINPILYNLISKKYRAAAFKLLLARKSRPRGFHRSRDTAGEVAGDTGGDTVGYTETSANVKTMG

[8] = molecular target: T5, Gastrin/cholecystokinin type B receptor (Homo sapiens, UniProt P32239)
T5 sequence (P32239 whole entry): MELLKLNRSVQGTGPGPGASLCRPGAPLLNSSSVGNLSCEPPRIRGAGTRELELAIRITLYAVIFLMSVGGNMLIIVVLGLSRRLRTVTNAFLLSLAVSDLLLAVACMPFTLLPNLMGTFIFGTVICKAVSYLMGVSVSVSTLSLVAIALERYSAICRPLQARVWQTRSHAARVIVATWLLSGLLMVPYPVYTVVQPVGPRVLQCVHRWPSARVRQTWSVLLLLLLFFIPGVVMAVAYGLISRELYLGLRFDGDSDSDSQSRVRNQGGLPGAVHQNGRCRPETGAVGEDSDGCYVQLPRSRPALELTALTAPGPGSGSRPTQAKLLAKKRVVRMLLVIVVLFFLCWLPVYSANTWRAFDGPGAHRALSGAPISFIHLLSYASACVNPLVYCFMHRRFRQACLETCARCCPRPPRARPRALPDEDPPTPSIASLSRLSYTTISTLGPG
Also: assay procedure not described here.

| SMILES | AC50 [1] [µM] | AC50 [2] [µM] | AC50 [3] [µM] | AC50 (Cannabinoid receptor 1) [µM] | AC50 [4] [µM] | AC50 [5] [µM] | AC50 [6] [µM] | AC50 [7] [µM] | AC50 (Motilin receptor) [µM] | AC50 [8] [µM] |
| --- | --- | --- | --- | --- | --- | --- | --- | --- | --- | --- |
| CCC(=O)O[C@@H](O[P@](=O)(CCCCc1ccccc1)CC(=O)N1C[C@H](C2CCCCC2)C[C@H]1C(=O)O)C(C)C [FOSINOPRIL] | > 30 | > 30 | > 30 | > 30 | > 30 | > 30 | – | – | – | – |
| CC(=O)/N=c1/sc(S(N)(=O)=O)nn1C [METHAZOLAMIDE] | > 30 | > 10 | > 30 | – | > 10 | > 10 | > 10 | > 10 | > 10 | – |
| CCCCCOc1ccc(-c2cc(-c3ccc(C(=O)N[C@H]4C[C@@H](O)[C@@H](O)NC(=O)[C@@H]5[C@@H](O)[C@@H](C)CN5C(=O)[C@H]([C@H](O)CC(N)=O)NC(=O)[C@H]([C@H](O)[C@@H](O)c5ccc(O)c(OS(=O)(=O)O)c5)NC(=O)[C@@H]5C[C@@H](O)CN5C(=O)[C@H]([C@@H](C)O)NC4=O)cc3)no2)cc1 [MICAFUNGIN] (X1-[Orn(4R-OH,5R-OH)]T[Hyp][hTyr(3S-OH,4S-OH,3'-OSO3H)][Gln(3R-OH)][Pro(3S-OH,4S-Me)]; lactam 1-C) | – | – | > 30 | – | – | – | – | – | – | – |
| CCOc1ccc2ccccc2c1C(=O)N[C@@H]1C(=O)N2[C@@H]1SC(C)(C)[C@@H]2C(=O)O [NAFCILLIN] | – | – | > 30 | – | – | – | – | – | – | – |
| CC(=O)Oc1ccccc1C(=O)Nc1ncc([N+](=O)[O-])s1 [NITAZOXANIDE] | 3.1 | > 30 | > 30 | > 30 | 19 | > 30 | 6.6 | 17 | 13 | 10 |
| CN(C)c1cc(CNCC(C)(C)C)c(O)c2c1C[C@H]1C[C@H]3[C@H](N(C)C)C(O)=C(C(N)=O)C(=O)[C@@]3(O)C(O)=C1C2=O [OMADACYCLINE] | 25 | > 30 | > 30 | > 30 | > 30 | > 30 | > 30 | > 30 | > 30 | > 30 |
| CCCCCCCCCCC[C@@H](C[C@@H]1OC(=O)[C@H]1CCCCCC)OC(=O)[C@H](CC(C)C)NC=O [ORLISTAT] | – | – | > 30 | – | – | – | – | – | – | – |
| O=C1[C@H]2CCCC[C@H]2C(=O)N1CCCCN1CCN(c2nsc3ccccc23)CC1 [PEROSPIRONE] | – | – | 3.73 | – | – | – | – | – | – | – |
| CN(C)CCC(c1ccccc1)c1ccccn1 (stereo unspecified) [PHENIRAMINE] | – | – | 7.98 | – | – | – | – | – | – | – |
| CNC[C@H](O)c1cccc(O)c1 [PHENYLEPHRINE] | > 10 | – | > 30 | > 30 | – | > 30 | > 30 | > 30 | > 10 | > 30 |
| CC(C)COc1ccc(CNC(=O)N(Cc2ccc(F)cc2)C2CCN(C)CC2)cc1 [PIMAVANSERIN] | – | – | > 30 | – | – | – | – | – | – | – |
| CC(C)(C)C(=O)NCCCC(=O)O [PIVAGABINE] | – | – | > 30 | – | – | – | – | – | – | – |
| CC(C)[N+](C)(CCOC(=O)C1c2ccccc2Oc2ccccc21)C(C)C [PROPANTHELINE] | – | – | > 30 | – | – | – | – | – | – | – |
| CNC(=O)c1cc(Oc2ccc(NC(=O)Nc3ccc(Cl)c(C(F)(F)F)c3)c(F)c2)ccn1 [REGORAFENIB] | – | – | > 30 | – | – | – | – | – | – | – |
| CN(C)C(=O)c1nc(CNC(=O)CN)n(-c2ccc(Cl)cc2C(=O)c2ccccc2Cl)n1 [RILMAZAFONE] | – | – | > 30 | – | – | – | – | – | – | – |
| NC(=O)NS(=O)(=O)c1ccc(N)cc1 [SULFACARBAMIDE] | – | – | > 30 | – | – | – | – | – | – | – |
| CN1CCN(CCCN2c3ccccc3Sc3ccc(S(=O)(=O)N(C)C)cc32)CC1 [THIOPROPERAZINE] | > 30 | > 30 | 17.3 | > 30 | > 30 | > 30 | – | – | – | – |
| CC1(C)O[C@@H]2[C@@H](CO[C@@]3(COS(N)(=O)=O)OC(C)(C)O[C@@H]23)O1 [TOPIRAMATE] | > 10 | > 10 | > 30 | > 30 | > 10 | > 10 | > 30 | > 30 | > 10 | > 30 |
| NCCc1ccc(O)cc1 [TYRAMINE] | – | – | > 30 | – | – | – | – | – | – | – |
| CCCCCCCCCCCCCCCC(=O)OC/C=C(C)/C=C/C=C(C)/C=C/C1=C(C)CCCC1(C)C [VITAMIN A PALMITATE] | – | – | > 30 | – | – | – | – | – | – | – |
